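Test compounds were applied to cells in 96-well plates for 48 hours at 5 doses. GI50 marks 50% less growth.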 Activity calls are given as the source filed them. Cut-off read from the data, not from the text of the source: active = GI50 up to about 1.1 µM and inactive = higher.
What was measured:
Experiment in all cases: NCI anticancer screen, dose series, 48 h
HCC 2998 = system: HCC 2998
ACHN = system: ACHN
CAKI-1 = system: CAKI-1
U-251 = system: U-251
SK-MEL-2 = system: SK-MEL-2
M14 = system: M14
KM12 = system: KM12
Hs-578T = system: Hs-578T
OVCAR-5 = system: OVCAR-5
SW-620 = system: SW-620
T47D = system: T47D
NCI-H226 = system: NCI-H226
SN12C = system: SN12C
SNB-75 = system: SNB-75
NCI-H522 = system: NCI-H522
Malme-3M = system: Malme-3M
MCF7 = system: MCF7
COLO 205 = system: COLO 205
HT-29 = system: HT-29
SR = system: SR

Row | Structure (SMILES) | GI50 (HCC 2998) | GI50 (ACHN) | GI50 (CAKI-1) | GI50 (U-251) | GI50 (SK-MEL-2) | GI50 (M14) | GI50 (KM12) | GI50 (Hs-578T) | GI50 (OVCAR-5) | GI50 (SW-620) | GI50 (T47D) | GI50 (NCI-H226) | GI50 (SN12C) | GI50 (SNB-75) | GI50 (NCI-H522) | GI50 (Malme-3M) | GI50 (MCF7) | GI50 (COLO 205) | GI50 (HT-29) | GI50 (SR)
1 | Cc1c2ccccc2c(C)n2c1nc1cc(Cl)c(Cl)cc12 | > 10 µM (inactive) | > 10 µM (inactive) | > 10 µM (inactive) | > 10 µM (inactive) | > 10 µM (inactive) | > 10 µM (inactive) | > 10 µM (inactive) | > 10 µM (inactive) | > 10 µM (inactive) | > 10 µM (inactive) | > 10 µM (inactive) | 0.0296 µM (active) | > 10 µM (inactive) | 3.8 µM (inactive) | 5.81 µM (inactive) | 0.166 µM (active) | 1.59 µM (inactive) | > 10 µM (inactive) | > 10 µM (inactive) | > 10 µM (inactive)
2 | Cc1cc(N(CCOS(C)(=O)=O)CCOS(C)(=O)=O)ccc1/C=N/c1ccc(-c2nc(Cc3ccccc3)sc2C)cc1 | 3.77 µM (inactive) | 0.404 µM (active) | 1.23 µM (inactive) | 6.64 µM (inactive) | 15.3 µM (inactive) | 4.86 µM (inactive) | 14.2 µM (inactive) | 10.6 µM (inactive) | 11.2 µM (inactive) | 8.57 µM (inactive) | 2.03 µM (inactive) | 2.2 µM (inactive) | 5.4 µM (inactive) | 1.66 µM (inactive) | 0.233 µM (active) | 11.4 µM (inactive) | 3.52 µM (inactive) | 1.43 µM (inactive) | 5.3 µM (inactive) | 1.32 µM (inactive)
3 | CO[C@H]1[C@@H](O)[C@@H](C)O[C@@H](O[C@H]2CC[C@@]3(C)[C@H](CC[C@@H]4[C@@H]3CC[C@]3(C)[C@@H](C5=CC(=O)OC5)[C@@H](OC(C)=O)C[C@]43O)C2)[C@@H]1O [NERITALOSIDE] | 0.23 µM (active) | 0.0188 µM (active) | 0.0208 µM (active) | 0.0798 µM (active) | 0.129 µM (active) | 0.0904 µM (active) | 0.157 µM (active) | 0.0202 µM (active) | 0.0914 µM (active) | 0.111 µM (active) | 0.162 µM (active) | 0.173 µM (active) | 0.0152 µM (active) | 0.112 µM (active) | 0.0142 µM (active) | 0.016 µM (active) | 0.16 µM (active) | 0.156 µM (active) | 0.0461 µM (active) | 0.0533 µM (active)
4 | CC(=O)OC1C(O)C(C)OC(OC2C(OC(=O)C3CCC4C(C3)OC3(CC(OC(=O)/C=C/c5ccccc5)C(C)CO3)C43CO3)OC(C)C(O)C2OC(C)=O)C1O (stereo not given) | 0.00358 µM (active) | 0.0925 µM (active) | 0.285 µM (active) | 0.00679 µM (active) | 0.00561 µM (active) | 0.00433 µM (active) | 0.00912 µM (active) | 0.00124 µM (active) | 0.0291 µM (active) | 0.0111 µM (active) | 0.00216 µM (active) | 0.0142 µM (active) | 0.0203 µM (active) | 0.00867 µM (active) | 0.00284 µM (active) | 0.00507 µM (active) | 0.00429 µM (active) | 0.0078 µM (active) | 0.00689 µM (active) | 0.00258 µM (active)
5 | C[S+](C)CC(=O)c1ccc2c(c1)Sc1ccccc1O2 | 2.64 µM (inactive) | 5.78 µM (inactive) | 4.39 µM (inactive) | 7.19 µM (inactive) | 3.4 µM (inactive) | 0.755 µM (active) | 0.955 µM (active) | 3.45 µM (inactive) | 5.87 µM (inactive) | 2.33 µM (inactive) | 9.57 µM (inactive) | 5.16 µM (inactive) | 6.34 µM (inactive) | 2.7 µM (inactive) | 1.09 µM (active) | 3.45 µM (inactive) | 1.7 µM (inactive) | 1.02 µM (active) | 1.17 µM (inactive) | 1.43 µM (inactive)
6 | CCCCCCCCCCCC[C@@H](O)[C@H]1CCC([C@H](O)CCCCC(=O)CCCCCCCC2=C[C@H](C)OC2=O)O1 (stereo not given in full) | > 50 µM (inactive) | > 33.6 µM (inactive) | > 36.4 µM (inactive) | 13.3 µM (inactive) | > 26.1 µM (inactive) | 15 µM (inactive) | 13.1 µM (inactive) | 11.3 µM (inactive) | > 50 µM (inactive) | > 29.1 µM (inactive) | 15.7 µM (inactive) | 15.8 µM (inactive) | > 39 µM (inactive) | > 37.9 µM (inactive) | 15.4 µM (inactive) | > 50 µM (inactive) | 2.45 µM (inactive) | 12.5 µM (inactive) | 14.6 µM (inactive) | 0.0773 µM (active)
7 | O=C1c2ccccc2C(=O)[C@@]23O[C@@]12C1(Oc2cccc4cccc(c24)O1)[C@@H]1O[C@@H]1[C@@H]3O | 6.17 µM (inactive) | 12.5 µM (inactive) | 11.1 µM (inactive) | 7.1 µM (inactive) | 19.2 µM (inactive) | 8.97 µM (inactive) | 14 µM (inactive) | 14.9 µM (inactive) | 17.8 µM (inactive) | 6.93 µM (inactive) | 9.16 µM (inactive) | 8.39 µM (inactive) | 11.6 µM (inactive) | 10.7 µM (inactive) | 3.36 µM (inactive) | 13.4 µM (inactive) | 3.66 µM (inactive) | 9.91 µM (inactive) | 4.94 µM (inactive) | 1.43 µM (inactive)
8 | Cc1cccc2cc3ccc4ccccc4c3cc12 | 19.9 µM (inactive) | 46.7 µM (inactive) | 87.1 µM (inactive) | 41.4 µM (inactive) | 26.5 µM (inactive) | 48.5 µM (inactive) | 37.2 µM (inactive) | > 100 µM (inactive) | 38.5 µM (inactive) | 44 µM (inactive) | 22.1 µM (inactive) | 37 µM (inactive) | 51.6 µM (inactive) | 69.2 µM (inactive) | 27.9 µM (inactive) | 56.5 µM (inactive) | 8.28 µM (inactive) | 19.4 µM (inactive) | 30.7 µM (inactive) | 22.2 µM (inactive)
9 | C=CCn1cnc2c(O)nc(Nc3ccccc3)nc21 | > 100 µM (inactive) | > 100 µM (inactive) | > 100 µM (inactive) | > 100 µM (inactive) | > 100 µM (inactive) | > 100 µM (inactive) | > 100 µM (inactive) | > 100 µM (inactive) | > 100 µM (inactive) | > 100 µM (inactive) | > 100 µM (inactive) | > 100 µM (inactive) | > 100 µM (inactive) | > 100 µM (inactive) | > 100 µM (inactive) | > 100 µM (inactive) | > 100 µM (inactive) | > 100 µM (inactive) | > 100 µM (inactive) | > 100 µM (inactive)
10 | COc1cccc2c1C(=O)OC2c1cccc2ccccc12 (stereo not given) | > 100 µM (inactive) | > 100 µM (inactive) | > 100 µM (inactive) | 67.5 µM (inactive) | > 100 µM (inactive) | > 100 µM (inactive) | > 100 µM (inactive) | 33 µM (inactive) | > 100 µM (inactive) | > 100 µM (inactive) | > 100 µM (inactive) | 92.9 µM (inactive) | > 100 µM (inactive) | 23.8 µM (inactive) | > 100 µM (inactive) | > 100 µM (inactive) | 31.6 µM (inactive) | > 100 µM (inactive) | > 100 µM (inactive) | > 100 µM (inactive)

Reference: ChEMBL document CHEMBL1201862, “PubChem BioAssay data set” (2004)
